Source: patent US10765114B2, “4-amino-6-(pyridyl and 2-substitutedphenyl)-picolinates and 6-amino-2-(pyridyl and 2-substitutedphenyl)-pyrimidine-4-carboxylates and their use as herbicides” (Dow AgroSciences LLC, priority 2013, dated 2020)

Tests used:
[1] = tested on: test plant species in Wheat and Barley; test: Post-Emergent Test III (Wheat and Barley), further species of Table 9; assay type: in vivo; conditions: for Visual Growth Reduction (%) 21 Days After Application, CHEAL: CHEAL lambsquarters (Chenopodium album); for Visual Growth Reduction (%) 21 Days After Application, CHEAL / Visual Growth Reduction (%) 21 Days After Application, GALAP / Visual Growth Reduction (%) 21 Days After Application, STEME / Visual Growth Reduction (%) 21 Days After Application, VIOTR: post-emergent; for GR50, CHEAL / GR50, GALAP / GR50, STEME / GR50, VIOTR: growth reduction of 50%; for GR50, CHEAL / GR80, CHEAL / GR90, CHEAL / GR50, GALAP / GR80, GALAP / GR90, GALAP / GR50, STEME / GR80, STEME / GR90, STEME / GR50, VIOTR / GR80, VIOTR / GR90, VIOTR: probit analysis, 21 days; for GR80, CHEAL / GR80, GALAP / GR80, STEME / GR80, VIOTR: growth reduction of 80%; for GR90, CHEAL / GR90, GALAP / GR90, STEME / GR90, VIOTR: growth reduction of 90%; for Visual Growth Reduction (%) 21 Days After Application, GALAP: GALAP cleavers (Galium aparine); for Visual Growth Reduction (%) 21 Days After Application, STEME: STEME common chickweed (Stellaria media); for Visual Growth Reduction (%) 21 Days After Application, VIOTR: VIOTR wild pansy (Viola tricolor)
Procedure: (§1) Seeds of the desired test plant species were planted in Sun Gro MetroMix® 306 planting mixture, which typically has a pH of 6.0 to 6.8 and an organic matter content of about 30 percent, in plastic pots with a surface area of 103.2 square centimeters (cm^2). When required to ensure good germination and healthy plants, a fungicide treatment and/or other chemical or physical treatment was applied. The plants were grown for 7-36 days in a greenhouse with an approximate 14 h photoperiod which was maintained at about 18° C. during the day and 17° C. during the night. Nutrients and water were added on a regular basis and supplemental lighting was provided with overhead metal halide 1000-Watt lamps as necessary. The plants were employed for testing when they reached the second or third true leaf stage.
(§2) A weighed amount, determined by the highest rate to be tested, of each test compound was placed in a 25 mL glass vial and was dissolved in 4 mL of a 97:3 v/v mixture of acetone and DMSO to obtain concentrated stock solutions. […] The concentrated stock solutions obtained were diluted with 20 mL of an aqueous mixture containing acetone, water, isopropyl alcohol, DMSO, Agri-Dex crop oil concentrate, and X-77 surfactant in a 48:39:10:1.5:1.5:0.02 v/v ratio to obtain spray solutions containing the highest application rates. Additional application rates were obtained by serial dilution of 12 mL of the high rate solution into a solution containing 2 mL of 97:3 v/v mixture of acetone and DMSO and 10 mL of an aqueous mixture containing acetone, water, isopropyl alcohol, DMSO, Agri-Dex crop oil concentrate, and X-77 surfactant in a 48:39:10:1.5:1.5:0.02 v/v ratio to obtain ½×, ¼×, ⅛× and 1/16× rates of the high rate. Compound requirements are based upon a 12 mL application volume at a rate of 187 liters per hectare (L/ha). Formulated compounds were applied to the plant material with an overhead Mandel track sprayer equipped with 8002E nozzles calibrated to deliver 187 L/ha over an application area of 0.503 square meters at a spray height of 18 inches (43 cm) above the average plant canopy height. Control plants were sprayed in the same manner with the solvent blank.
(§3) The treated plants and control plants were placed in a greenhouse as described above and watered by subirrigation to prevent wash-off of the test compounds. After 21 dAYS, the condition of the test plants as compared with that of the untreated plants was determined visually and scored on a scale of 0 to 100 percent where 0 corresponds to no injury and 100 corresponds to complete kill and presented as indicated in Table A.
(§4) By applying the well-accepted probit analysis as described by J. Berkson in Journal of the American Statistical Society, 48, 565 (1953) and by D. Finney in “Probit Analysis” Cambridge University Press (1952), herbicidal injury of a specific compound at various rates can be used to calculate GR10, GR20, GR50, GR80 and GR90 values, which are defined as growth reduction factors that correspond to the effective dose of herbicide required to provide plant growth reduction (GR) of 10 percent, 20 percent, 50 percent, 80 percent and 90 percent, respectively. Probit analysis was applied to data collected from multiple dose rates of individual compounds utilizing the procedures explained in the following examples. The analysis of those dose rates is captured in the following tables.

BROTE (downy brome) = test: Post-Emergent Test III (Wheat and Barley); assay type: in vivo, Bromus tectorum; conditions: for Visual Growth Reduction (%) 21 Days After Application, BROTE: postemergence
Procedure: as §1, §2, §3, §4

SINAR (wild mustard) = test: Post-Emergent Test III (Wheat and Barley); assay type: in vivo, Sinapis arvensis; conditions: for Visual Growth Reduction (%) 21 Days After Application, SINAR: postemergence
Procedure: as §1, §2, §3, §4

[2] = effective dose for growth reduction of 50 percent, probit analysis
[3] = effective dose for growth reduction of 80 percent, probit analysis
[4] = effective dose for growth reduction of 90 percent, probit analysis

SMILES | Visual Growth Reduction (%) 21 Days After Application, CHEAL ([1]; 17.5 g ai/ha) | Visual Growth Reduction (%) 21 Days After Application, CHEAL ([1]; 35 g ai/ha) | Visual Growth Reduction (%) 21 Days After Application, CHEAL ([1]; 70 g ai/ha) | GR50, CHEAL [1] | GR80, CHEAL [1] | GR90, CHEAL [1] | Visual Growth Reduction (%) 21 Days After Application, GALAP ([1]; 17.5 g ai/ha) | Visual Growth Reduction (%) 21 Days After Application, GALAP ([1]; 35 g ai/ha) | Visual Growth Reduction (%) 21 Days After Application, GALAP ([1]; 70 g ai/ha) | GR50, GALAP [1] | GR80, GALAP [1] | GR90, GALAP [1] | Visual Growth Reduction (%) 21 Days After Application, STEME ([1]; 17.5 g ai/ha) | Visual Growth Reduction (%) 21 Days After Application, STEME ([1]; 35 g ai/ha) | Visual Growth Reduction (%) 21 Days After Application, STEME ([1]; 70 g ai/ha) | GR50, STEME [1] | GR80, STEME [1] | GR90, STEME [1] | Visual Growth Reduction (%) 21 Days After Application, VIOTR ([1]; 17.5 g ai/ha) | Visual Growth Reduction (%) 21 Days After Application, VIOTR ([1]; 35 g ai/ha) | further results
Nc1cc(-c2ccc(Cl)c(Cl)c2Cl)nc(C(=O)O)c1Cl [Compound 93] | C (75-84) | B (85-94) | B (85-94) | 1 g ai/ha | 16 g ai/ha | 80 g ai/ha | D (60-74) | C (75-84) | C (75-84) | 1 g ai/ha | 88 g ai/ha | >140 g ai/ha | E (45-59) | D (60-74) | D (60-74) | 11 g ai/ha | >140 g ai/ha | >140 g ai/ha | E (45-59) | E (45-59) | Visual Growth Reduction (%) 21 Days After Application, VIOTR ([1]; 70 g ai/ha): E (45-59); GR50, VIOTR [1]: 41 g ai/ha; GR80, VIOTR [1]: >140 g ai/ha; GR90, VIOTR [1]: >140 g ai/ha
Cc1c(-c2cc(N)c(Cl)c(C(=O)O)n2)ccc(Cl)c1Cl [Compound 28] | C (75-84) | C (75-84) | B (85-94) | 1 g ai/ha | 30 g ai/ha | >140 g ai/ha | F (30-44) | E (45-59) | D (60-74) | 29 g ai/ha | 120 g ai/ha | >140 g ai/ha | D (60-74) | C (75-84) | B (85-94) | 11 g ai/ha | 31 g ai/ha | 53 g ai/ha | G (0-29) | G (0-29) | Visual Growth Reduction (%) 21 Days After Application, VIOTR ([1]; 70 g ai/ha): G (0-29); GR50, VIOTR [1]: >140 g ai/ha; GR80, VIOTR [1]: >140 g ai/ha; GR90, VIOTR [1]: >140 g ai/ha
COC(=O)c1nc(-c2ccc(Cl)c(F)c2C)cc(N)c1Cl [Compound 73] |  |  |  |  |  |  |  |  |  |  |  |  |  |  |  |  |  |  |  |  | Visual Growth Reduction (%) 21 Days After Application, BROTE (BROTE (downy brome); 35 g ai/ha): E (45-59); Visual Growth Reduction (%) 21 Days After Application, BROTE (BROTE (downy brome); 70 g ai/ha): D (60-74); Visual Growth Reduction (%) 21 Days After Application, BROTE (BROTE (downy brome); 140 g ai/ha): D (60-74); GR50, BROTE (BROTE (downy brome); [2]): 59 g ai/ha; GR80, BROTE (BROTE (downy brome); [3]): >140 g ai/ha; GR90, BROTE (BROTE (downy brome); [4]): >140 g ai/ha; Visual Growth Reduction (%) 21 Days After Application, SINAR (SINAR (wild mustard); 35 g ai/ha): A (95-100); Visual Growth Reduction (%) 21 Days After Application, SINAR (SINAR (wild mustard); 70 g ai/ha): A (95-100); Visual Growth Reduction (%) 21 Days After Application, SINAR (SINAR (wild mustard); 140 g ai/ha): A (95-100); GR50, SINAR (SINAR (wild mustard); [2]): 1 g ai/ha; GR80, SINAR (SINAR (wild mustard); [3]): 1 g ai/ha; GR90, SINAR (SINAR (wild mustard); [4]): 3 g ai/ha
